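In this assay, cells in 96-well plates receive the compound at five concentrations for 48 hours. Endpoints are linearly interpolated between the surrounding concentrations. GI50 = concentration required for 50% inhibition of growth. TGI: concentration producing complete growth inhibition.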
Assays:
Test in all cases: inhibition of tumour cell growth, NCI panel, 48 h
DU-145 prostate = system: DU-145 prostate
HCC-2998 colon = system: HCC-2998 colon
HOP-62 NSCLC = system: HOP-62 NSCLC
K-562 leukemia = system: K-562 leukemia
LOX IMVI melanoma = system: LOX IMVI melanoma
MOLT-4 leukemia = system: MOLT-4 leukemia
NCI-H460 lung = system: NCI-H460 lung
PC-3 prostate = system: PC-3 prostate
SK-MEL-2 melanoma = system: SK-MEL-2 melanoma
UACC-257 melanoma = system: UACC-257 melanoma

SMILES	GI50 (DU-145 prostate) [µM]	TGI (DU-145 prostate) [µM]	GI50 (HCC-2998 colon) [µM]	TGI (HCC-2998 colon) [µM]	GI50 (HOP-62 NSCLC) [µM]	TGI (HOP-62 NSCLC) [µM]	GI50 (K-562 leukemia) [µM]	TGI (K-562 leukemia) [µM]	GI50 (LOX IMVI melanoma) [µM]	TGI (LOX IMVI melanoma) [µM]	TGI (MOLT-4 leukemia) [µM]	GI50 (NCI-H460 lung) [µM]	TGI (NCI-H460 lung) [µM]	TGI (PC-3 prostate) [µM]	GI50 (SK-MEL-2 melanoma) [µM]	TGI (SK-MEL-2 melanoma) [µM]	GI50 (UACC-257 melanoma) [µM]	TGI (UACC-257 melanoma) [µM]	GI50 (MOLT-4 leukemia) [µM]	GI50 (PC-3 prostate) [µM]
C/C(=N\Nc1cc(C)c2cc(C)ccc2n1)c1ccccn1	0.0737	4.8	< 0.0501	1.47	0.055	1.41	0.095	1.43	0.0744	1.23	0.361	0.187	1.22	2.32	0.0706	10.8	0.0818	0.312	–	–
O=C1c2cc3c(cc2-c2c1c1ccc(Cl)cc1c(=O)n2CCCNCCO)OCO3	0.059	1.68	1.15	2.46	0.0714	1.73	0.108	0.355	0.0467	1.3	0.512	0.0342	1.34	2.55	1.97	3.54	0.666	2.43	0.031	1.07
CC(C)(O)CS(=O)(=O)Nc1ccc2c(c1)CCN(C(=O)COc1cccnc1)C2	0.618	> 100	> 26.5	> 100	99.4	> 100	0.0652	> 100	> 100	> 100	> 100	11.5	> 100	> 100	> 100	> 100	> 100	> 100	> 100	1.06
O=C1C(=O)c2ccccc2C(O)=C1CC=C(Br)Br	9.36	> 100	18.6	> 100	9.01	> 100	1.33	> 100	1.34	27.6	> 100	0.524	13.3	91.5	12.2	30.9	11	38.4	2.83	3.05
CC(=O)[C@@]1(O)CC[C@H]2[C@@H]3C[C@H](C)C4=CC(=O)CC[C@]4(C)[C@H]3[C@@H](O)C[C@@]21C	–	> 100	–	> 100	–	> 100	–	> 100	–	> 100	> 100	–	> 100	> 100	–	> 100	–	> 100	–	–
O=C(/C=C/c1cccnc1)NCCCCC1CCCN(C(=O)c2ccccc2)C1 (stereo not drawn)	< 0.01	> 100	0.974	> 100	> 94.2	> 100	< 0.01	> 100	5.67	> 100	> 100	0.0227	> 100	> 100	5.71	> 100	> 76.8	> 100	23	1.47
C=C1C(=O)O[C@H]2[C@H]1CC/C(Cn1cc(-c3cc(C(F)(F)F)cc(C(F)(F)F)c3)nn1)=C\CC[C@@]1(C)O[C@@H]21	0.726	2.02	1.17	2.51	1.56	3.31	0.238	0.601	0.156	0.298	0.603	1.22	2.67	2.33	0.348	1.49	1.46	2.91	0.191	0.832
